Source: US9062043B2, “Fused tricyclic compounds as serine-threonine protein kinase and PARP modulators” (SENHWA BIOSCIENCES, INC., priority 2006, dated 2015)

Key:
[1] = Tumor pharmacokinetic study, 30 mg/kg IV QDx6; type: in vivo, mice
[2] = target: protein kinases (Homo sapiens, UniProt O00418); assay: Kinase inhibition, percentage of activity at 0.5 μM, standardized radiometric kinase assays; type: biochemical; settings: eEF-2K(h);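 note: each kinase tested separately, with activity read as 33P-labelled substrate protein captured on filters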
Chain of protein kinases (Homo sapiens, UniProt O00418) (O00418 2-725 limits assumed): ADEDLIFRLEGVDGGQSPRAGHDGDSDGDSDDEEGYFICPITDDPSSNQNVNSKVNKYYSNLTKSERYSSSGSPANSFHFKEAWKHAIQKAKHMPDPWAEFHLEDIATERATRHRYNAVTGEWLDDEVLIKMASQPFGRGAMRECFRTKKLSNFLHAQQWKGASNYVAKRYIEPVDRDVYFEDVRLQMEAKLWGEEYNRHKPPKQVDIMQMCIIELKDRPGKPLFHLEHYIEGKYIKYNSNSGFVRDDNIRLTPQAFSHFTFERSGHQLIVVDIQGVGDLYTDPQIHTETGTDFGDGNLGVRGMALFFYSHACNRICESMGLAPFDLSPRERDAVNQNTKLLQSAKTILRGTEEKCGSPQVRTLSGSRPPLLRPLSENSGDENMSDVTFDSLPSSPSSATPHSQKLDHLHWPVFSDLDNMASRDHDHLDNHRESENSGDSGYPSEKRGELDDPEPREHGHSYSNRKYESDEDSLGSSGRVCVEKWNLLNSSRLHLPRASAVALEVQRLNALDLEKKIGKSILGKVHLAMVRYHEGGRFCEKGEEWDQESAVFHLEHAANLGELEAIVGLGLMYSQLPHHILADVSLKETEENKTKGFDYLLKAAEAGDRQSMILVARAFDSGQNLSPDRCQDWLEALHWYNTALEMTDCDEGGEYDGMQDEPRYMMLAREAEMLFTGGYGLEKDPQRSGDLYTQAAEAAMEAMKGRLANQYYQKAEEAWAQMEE

[3] = target: protein kinases (Homo sapiens, UniProt O15530); assay: as above; type: biochemical; settings: PDK1(h)
[4] = target: protein kinases (Homo sapiens, UniProt O43318); assay: as above; type: biochemical; settings: TAK1(h)
[5] = target: protein kinases (Homo sapiens, UniProt P00519); assay: as above; type: biochemical; settings: Abl(h)
[6] = target: protein kinases (Homo sapiens, UniProt P04629); assay: as above; type: biochemical; settings: TrkA(h)
[7] = target: protein kinases (Homo sapiens, UniProt P06241); assay: as above; type: biochemical; settings: Fyn(h)
[8] = target: protein kinases (Homo sapiens, UniProt P07948); assay: as above; type: biochemical; settings: Lyn(h)
Chain of protein kinases (Homo sapiens, UniProt P07948) (P07948 2-512 limits assumed): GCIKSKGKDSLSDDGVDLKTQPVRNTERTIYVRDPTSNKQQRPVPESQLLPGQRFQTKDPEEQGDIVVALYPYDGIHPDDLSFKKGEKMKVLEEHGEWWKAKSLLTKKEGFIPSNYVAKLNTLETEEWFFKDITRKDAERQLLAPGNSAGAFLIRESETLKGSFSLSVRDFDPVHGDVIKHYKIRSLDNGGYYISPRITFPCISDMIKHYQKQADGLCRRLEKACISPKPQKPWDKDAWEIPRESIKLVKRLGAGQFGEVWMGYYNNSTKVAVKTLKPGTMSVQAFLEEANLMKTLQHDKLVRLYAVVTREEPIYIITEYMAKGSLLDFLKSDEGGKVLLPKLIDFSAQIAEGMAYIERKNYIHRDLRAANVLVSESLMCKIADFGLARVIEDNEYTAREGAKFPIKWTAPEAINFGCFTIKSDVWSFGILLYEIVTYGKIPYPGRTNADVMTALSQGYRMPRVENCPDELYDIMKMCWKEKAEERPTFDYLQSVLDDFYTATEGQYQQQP

[9] = target: protein kinases (Homo sapiens, UniProt P08631); assay: as above; type: biochemical; settings: Hck(h)
[10] = target: protein kinases (Homo sapiens, UniProt P09619); assay: as above; type: biochemical; settings: PDGFRβ(h)
Chain of protein kinases (Homo sapiens, UniProt P09619) (P09619 33-1106 limits assumed): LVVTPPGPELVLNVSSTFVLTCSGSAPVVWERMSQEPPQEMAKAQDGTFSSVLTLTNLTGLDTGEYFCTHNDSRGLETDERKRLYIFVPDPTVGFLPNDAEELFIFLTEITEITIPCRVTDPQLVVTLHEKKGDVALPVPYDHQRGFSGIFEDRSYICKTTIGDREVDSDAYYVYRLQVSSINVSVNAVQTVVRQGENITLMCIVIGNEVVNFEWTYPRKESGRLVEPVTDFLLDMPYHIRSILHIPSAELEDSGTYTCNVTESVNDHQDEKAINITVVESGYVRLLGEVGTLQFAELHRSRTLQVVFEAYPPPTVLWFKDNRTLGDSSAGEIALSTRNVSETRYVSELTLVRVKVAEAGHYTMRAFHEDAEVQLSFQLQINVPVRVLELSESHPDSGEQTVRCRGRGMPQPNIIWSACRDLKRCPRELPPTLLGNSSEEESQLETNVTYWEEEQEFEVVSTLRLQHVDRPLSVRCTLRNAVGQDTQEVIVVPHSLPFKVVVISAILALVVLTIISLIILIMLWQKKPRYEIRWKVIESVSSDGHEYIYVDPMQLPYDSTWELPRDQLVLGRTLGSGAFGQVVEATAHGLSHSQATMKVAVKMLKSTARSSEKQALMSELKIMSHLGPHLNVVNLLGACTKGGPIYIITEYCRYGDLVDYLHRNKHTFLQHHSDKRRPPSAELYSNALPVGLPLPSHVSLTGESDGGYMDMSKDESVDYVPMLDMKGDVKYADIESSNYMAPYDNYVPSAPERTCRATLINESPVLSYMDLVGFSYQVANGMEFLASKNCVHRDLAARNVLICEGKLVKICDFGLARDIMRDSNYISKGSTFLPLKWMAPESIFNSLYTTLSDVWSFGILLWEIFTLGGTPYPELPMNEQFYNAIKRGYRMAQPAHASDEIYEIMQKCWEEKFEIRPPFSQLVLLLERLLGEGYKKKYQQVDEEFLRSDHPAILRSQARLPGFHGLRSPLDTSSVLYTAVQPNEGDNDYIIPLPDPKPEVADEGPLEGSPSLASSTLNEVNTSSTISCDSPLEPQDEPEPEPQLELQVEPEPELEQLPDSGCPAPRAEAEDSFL

[11] = target: protein kinases (Homo sapiens, UniProt P10721, D816H); assay: as above; type: biochemical; settings: cKit(D816H)(h)
[12] = target: protein kinases (Homo sapiens, UniProt P10721, V560G); assay: as above; type: biochemical; settings: cKit(V560G)(h)
[13] = target: protein kinases (Homo sapiens, UniProt P11309); assay: as above; type: biochemical; settings: Pim-1(h)
[14] = target: protein kinases (Homo sapiens, UniProt P16234); assay: as above; type: biochemical; settings: PDGFRα(h)
[15] = target: protein kinases (Homo sapiens, UniProt P17612); assay: as above; type: biochemical; settings: PKA(h)
[16] = target: protein kinases (Homo sapiens, UniProt P23443); assay: as above; type: biochemical; settings: p70S6K(h)
[17] = target: protein kinases (Homo sapiens, UniProt P31749); assay: as above; type: biochemical; settings: PKBα(h)
[18] = target: protein kinases (Homo sapiens, UniProt P35916); assay: as above; type: biochemical; settings: Flt4(h)
[19] = target: protein kinases (Homo sapiens, UniProt P35968); assay: as above; type: biochemical; settings: KDR(h)
[20] = target: protein kinases (Homo sapiens, UniProt P36888); assay: as above; type: biochemical; settings: Flt3(h)
[21] = target: protein kinases (Homo sapiens, UniProt P36888, D835Y); assay: as above; type: biochemical; settings: Flt3(D835Y)(h)
[22] = target: protein kinases (Homo sapiens, UniProt P43403); assay: as above; type: biochemical; settings: ZAP-70(h)
[23] = target: protein kinases (Homo sapiens, UniProt P51813); assay: as above; type: biochemical; settings: Bmx(h)
[24] = target: protein kinases (Homo sapiens, UniProt P54760); assay: as above; type: biochemical; settings: EphB4(h)
[25] = target: protein kinases (Homo sapiens, UniProt P80192); assay: as above; type: biochemical; settings: MLK1(h)
[26] = target: protein kinases (Homo sapiens, UniProt Q02750); assay: as above; type: biochemical; settings: MEK1(h)
[27] = target: protein kinases (Homo sapiens, UniProt Q04759); assay: as above; type: biochemical; settings: PKC0(h)
[28] = target: protein kinases (Homo sapiens, UniProt Q05397); assay: as above; type: biochemical; settings: FAK(h)
[29] = target: protein kinases (Homo sapiens, UniProt Q06418); assay: as above; type: biochemical; settings: Rse(h)
[30] = target: protein kinases (Homo sapiens, UniProt Q12866); assay: as above; type: biochemical; settings: Mer(h)
Chain of protein kinases (Homo sapiens, UniProt Q12866) (Q12866 21-999 limits assumed): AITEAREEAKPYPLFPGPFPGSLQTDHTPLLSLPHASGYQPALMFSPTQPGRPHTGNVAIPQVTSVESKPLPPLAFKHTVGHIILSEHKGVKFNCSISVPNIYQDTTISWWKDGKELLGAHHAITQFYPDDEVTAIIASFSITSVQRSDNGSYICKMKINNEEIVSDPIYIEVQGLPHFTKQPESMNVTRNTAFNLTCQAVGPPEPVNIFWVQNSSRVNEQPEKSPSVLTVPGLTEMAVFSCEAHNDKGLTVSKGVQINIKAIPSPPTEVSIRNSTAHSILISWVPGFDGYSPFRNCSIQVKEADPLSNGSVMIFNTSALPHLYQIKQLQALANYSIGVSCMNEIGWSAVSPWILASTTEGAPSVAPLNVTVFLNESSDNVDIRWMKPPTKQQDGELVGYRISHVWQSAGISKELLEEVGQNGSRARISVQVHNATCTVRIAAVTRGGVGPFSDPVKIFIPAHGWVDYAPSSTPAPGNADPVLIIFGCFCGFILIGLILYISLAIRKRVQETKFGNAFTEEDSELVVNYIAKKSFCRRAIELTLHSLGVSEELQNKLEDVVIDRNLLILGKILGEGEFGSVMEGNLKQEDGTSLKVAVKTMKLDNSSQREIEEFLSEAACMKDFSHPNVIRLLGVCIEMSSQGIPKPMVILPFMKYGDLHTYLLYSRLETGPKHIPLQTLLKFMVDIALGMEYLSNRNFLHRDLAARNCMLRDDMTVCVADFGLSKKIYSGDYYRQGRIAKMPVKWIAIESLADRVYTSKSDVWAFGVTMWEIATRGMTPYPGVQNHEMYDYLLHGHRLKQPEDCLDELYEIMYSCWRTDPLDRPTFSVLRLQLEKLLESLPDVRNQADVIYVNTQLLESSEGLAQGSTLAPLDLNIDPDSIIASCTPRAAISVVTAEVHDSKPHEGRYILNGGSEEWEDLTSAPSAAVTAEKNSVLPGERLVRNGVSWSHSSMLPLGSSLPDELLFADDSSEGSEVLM

[31] = target: protein kinases (Homo sapiens, UniProt Q13464); assay: as above; type: biochemical; settings: ROCK-I(h)
[32] = target: protein kinases (Homo sapiens, UniProt Q13882); assay: as above; type: biochemical; settings: BRK(h)
[33] = target: protein kinases (Homo sapiens, UniProt Q14012); assay: as above; type: biochemical; settings: CaMKI(h)
[34] = target: protein kinases (Homo sapiens, UniProt Q14680); assay: as above; type: biochemical; settings: MELK(h)
[35] = target: protein kinases (Homo sapiens, UniProt Q16832); assay: as above; type: biochemical; settings: DDR2(h)
[36] = target: protein kinases (Homo sapiens, UniProt Q8IW41); assay: as above; type: biochemical; settings: PRAK(h)
[37] = target: protein kinases (Homo sapiens, UniProt Q92630); assay: as above; type: biochemical; settings: DYRK2(h)
[38] = target: protein kinases (Homo sapiens, UniProt Q96SB4); assay: as above; type: biochemical; settings: SRPK1(h)
[39] = target: protein kinases (Homo sapiens, UniProt Q99683); assay: as above; type: biochemical; settings: ASK1(h)
[40] = target: protein kinases (Homo sapiens, UniProt Q9H4B4); assay: as above; type: biochemical; settings: Plk3(h)
[41] = target: protein kinases (Homo sapiens, UniProt Q9UM73); assay: as above; type: biochemical; settings: ALK(h)
Chain of protein kinases (Homo sapiens, UniProt Q9UM73) (Q9UM73 19-1620 limits assumed): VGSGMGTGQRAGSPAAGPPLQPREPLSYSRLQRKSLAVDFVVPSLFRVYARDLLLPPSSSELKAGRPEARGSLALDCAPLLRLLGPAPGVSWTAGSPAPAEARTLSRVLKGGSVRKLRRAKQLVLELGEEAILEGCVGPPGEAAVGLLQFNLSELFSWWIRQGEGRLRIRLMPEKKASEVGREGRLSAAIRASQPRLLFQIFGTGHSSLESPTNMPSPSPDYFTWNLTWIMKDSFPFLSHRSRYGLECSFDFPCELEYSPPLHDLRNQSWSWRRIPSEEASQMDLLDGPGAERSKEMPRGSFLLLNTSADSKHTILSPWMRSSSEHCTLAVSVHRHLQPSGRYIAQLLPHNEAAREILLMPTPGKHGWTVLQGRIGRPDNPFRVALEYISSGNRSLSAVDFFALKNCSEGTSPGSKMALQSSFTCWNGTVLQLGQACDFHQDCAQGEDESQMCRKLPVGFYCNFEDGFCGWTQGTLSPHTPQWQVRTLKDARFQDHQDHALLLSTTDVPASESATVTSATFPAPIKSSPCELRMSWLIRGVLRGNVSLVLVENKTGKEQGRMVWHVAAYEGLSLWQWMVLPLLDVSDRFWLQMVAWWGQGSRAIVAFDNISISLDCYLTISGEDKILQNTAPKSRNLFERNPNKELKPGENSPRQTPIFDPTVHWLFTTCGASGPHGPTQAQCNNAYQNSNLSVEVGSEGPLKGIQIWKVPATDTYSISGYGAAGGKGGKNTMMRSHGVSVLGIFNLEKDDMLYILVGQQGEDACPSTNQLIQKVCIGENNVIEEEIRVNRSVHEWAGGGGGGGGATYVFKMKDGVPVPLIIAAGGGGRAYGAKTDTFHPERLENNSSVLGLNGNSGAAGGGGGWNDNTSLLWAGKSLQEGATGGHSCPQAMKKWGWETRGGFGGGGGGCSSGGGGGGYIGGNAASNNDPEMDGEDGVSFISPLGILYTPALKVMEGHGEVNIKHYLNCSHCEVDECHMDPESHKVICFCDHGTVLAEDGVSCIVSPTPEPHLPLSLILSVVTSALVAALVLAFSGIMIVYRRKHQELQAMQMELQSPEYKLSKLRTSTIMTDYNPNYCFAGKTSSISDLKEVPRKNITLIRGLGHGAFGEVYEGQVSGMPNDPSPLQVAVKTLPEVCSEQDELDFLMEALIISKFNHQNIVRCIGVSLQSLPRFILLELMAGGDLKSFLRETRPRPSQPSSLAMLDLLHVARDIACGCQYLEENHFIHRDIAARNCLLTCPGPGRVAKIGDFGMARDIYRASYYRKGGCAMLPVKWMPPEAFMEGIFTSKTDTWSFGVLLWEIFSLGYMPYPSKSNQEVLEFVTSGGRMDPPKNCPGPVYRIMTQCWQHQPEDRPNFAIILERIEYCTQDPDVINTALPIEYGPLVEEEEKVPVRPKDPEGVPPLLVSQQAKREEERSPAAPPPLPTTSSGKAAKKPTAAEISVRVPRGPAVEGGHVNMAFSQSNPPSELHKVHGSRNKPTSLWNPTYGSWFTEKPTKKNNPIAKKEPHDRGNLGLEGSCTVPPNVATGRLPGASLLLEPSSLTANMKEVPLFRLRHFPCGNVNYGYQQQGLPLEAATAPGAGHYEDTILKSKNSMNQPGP

[42] = test system: protein kinases; assay: as above; type: biochemical; settings: MAPK1(h)

## C#Cc1cccc(Nc2nc3cc(C(=O)O)ccc3c3cncnc23)c1 [compound A2]
[1]
  Half life change on repeated dosing: about doubles
  Minimum concentration increase after six days: 4-5 times higher
  Time to steady state: about three days
[2]
  activity at 0.5 µM: 106%
[3]
  activity at 0.5 µM: 110%
[4]
  activity at 0.5 µM: 101%
[5]
  activity at 0.5 µM: 91%
[6]
  activity at 0.5 µM: 90%
[7]
  activity at 0.5 µM: 114%
[8]
  activity at 0.5 µM: 109%
[9]
  activity at 0.5 µM: 111%
[10]
  activity at 0.5 µM: 110%
[11]
  activity at 0.5 µM: 101%
[12]
  activity at 0.5 µM: 111%
[13]
  activity at 0.5 µM: 27%
[14]
  activity at 0.5 µM: 109%
[15]
  activity at 0.5 µM: 90%
[16]
  activity at 0.5 µM: 80%
[17]
  activity at 0.5 µM: 104%
[18]
  activity at 0.5 µM: -1%
[19]
  activity at 0.5 µM: 67%
[20]
  activity at 0.5 µM: 42%
[21]
  activity at 0.5 µM: 17%
[22]
  activity at 0.5 µM: 118%
[23]
  activity at 0.5 µM: 118%
[24]
  activity at 0.5 µM: 144%
[25]
  activity at 0.5 µM: 80%
[26]
  activity at 0.5 µM: 136%
[27]
  activity at 0.5 µM: 111%
[28]
  activity at 0.5 µM: 97%
[29]
  activity at 0.5 µM: 109%
[30]
  activity at 0.5 µM: 46%
[31]
  activity at 0.5 µM: 97%
[32]
  activity at 0.5 µM: 110%
[33]
  activity at 0.5 µM: 104%
[34]
  activity at 0.5 µM: 49%
[35]
  activity at 0.5 µM: 109%
[36]
  activity at 0.5 µM: 93%
[37]
  activity at 0.5 µM: 50%
[38]
  activity at 0.5 µM: 66%
[39]
  activity at 0.5 µM: 116%
[40]
  activity at 0.5 µM: 106%
[41]
  activity at 0.5 µM: 112%
[42]
  % activity at 0.5 μM: 95%
